{"source": "patent US20250101436A1", "about": "“APTAMERS AND SMALL MOLECULE LIGANDS” (MeiraGTx UK II Limited, priority 2021, published 2025)", "data": [{"tested_on": "luciferase gene expression in HEK 293 cells in response to Comp. 004", "assay": "Screen of riboswitch constructs with 12C6-1 variant aptamers (libraries N1-N5) against Comp. 004, luciferase in HEK 293 cells", "assay_type": "cell-based, human", "conditions": "library N1 (J2-4), HEK 293, 25 M [sic] Comp. 004", "from_the_text": "(§1) Cloning of riboswitch constructs containing 12C6-1 variant aptamer sequences: 12C6-1 aptamer sequence was used as template, and nucleobases were randomized at certain position in the sequence. Aptamers incorporating random mutagenesis were synthesized by Integrated DNA Technologies, Inc. Golden Gate cloning strategy (New England Biolabs, NEB) was used to clone the synthesized aptamer sequences into intron-exon-intron cassette to replace the 12C6-1 aptamer in the Luci-12C6-1 riboswitch construct, generating riboswitch constructs containing variant aptamer sequences.\n(§2) To further improve the riboswitch activity in responding to Comp. 004 and related compounds, the aptamer sequence 12C6-1 was subject to mutagenesis to generate aptamer variants, and the riboswitches containing the variant aptamers were screened against Comp. 004 for the ones that have improved dynamic range of induced gene expression (the fold induction), in comparison with the fold induction by parental riboswitch construct Luci-12C6-1. […] These loop or junction region alone or together with stem region in proximity were chosen for random mutagenesis to generate riboswitches with re-engineered aptamer sequences with improved activity.\n(§3) Five aptamer libraries N1, N2, N3, N4 and N5 were generated by randomizing nucleotides at positions in J2-4, J2-3/J3-3a/J3a-2/P3, L3a, J4-5/J5-4/P4 and L5 regions of the parent 12C6-1 sequence, respectively (see FIGS. 3a and 3b). Single bacterial colonies were picked and plasmids containing variant riboswitch constructs were screened in HEK 293 cells for improved gene regulation activity in response to 25 µM Comp. 004 as compared to parent riboswitch construct Luci-12C6-1.", "units": {"Fold (induction of luciferase gene expression)": "fold"}, "values": [{"substance": "N1_2G10 (CTGGGGAGTCCTTCATGCGGGGC; chemistry not given here)", "Fold (induction of luciferase gene expression)": 4.40}, {"substance": "N1_2G7 (CTGGGGAGTCCTTCATGCGGGGC; chemistry not given here)", "Fold (induction of luciferase gene expression)": 2.06}, {"substance": "N1_2G1 (CTGGGGAGTCCTTCATGCGGGGC; chemistry not given here)", "Fold (induction of luciferase gene expression)": 100.11}, {"substance": "N1_2D2 (CTGGGGAGTCCTTCATGCGGGGC; chemistry not given here)", "Fold (induction of luciferase gene expression)": 102.23}, {"substance": "N1_2E4 (CTGGGGAGTCCTTCATGCGGGGC; chemistry not given here)", "Fold (induction of luciferase gene expression)": 10.44}, {"substance": "N1_2F1 (CTGGGGAGTCCTTCATGCGGGGC; chemistry not given here)", "Fold (induction of luciferase gene expression)": 8.34}, {"substance": "N1_2F12 (CTGGGGAGTCCTTCATGCGGGGC; chemistry not given here)", "Fold (induction of luciferase gene expression)": 1.83}, {"substance": "N1_2E3 (CTGGGGAGTCCTTCATGCGGGGC; chemistry not given here)", "Fold (induction of luciferase gene expression)": 5.79}, {"substance": "N1_2G3 (CTGGGGAGTCCTTCATGCGGGGC; chemistry not given here)", "Fold (induction of luciferase gene expression)": 36.58}, {"substance": "N1_2E8 (CTGGGGAGTCCTTCATGCGGGGC; chemistry not given here)", "Fold (induction of luciferase gene expression)": 5.81}, {"substance": "N1_2F7 (CTGGGGAGTCCTTCATGCGGGGC; chemistry not given here)", "Fold (induction of luciferase gene expression)": 41.88}]}, {"tested_on": "luciferase gene expression in HEK 293 cells in response to Comp. 004", "assay": "Screen of riboswitch constructs with 12C6-1 variant aptamers (libraries N1-N5) against Comp. 004, luciferase in HEK 293 cells", "assay_type": "cell-based, human", "conditions": "library N2 variant aptamers (J2-3, P3-J3-3a, J3a-2 randomized) of 12C6-1 in riboswitch constructs; in response to Comp. 004; HEK 293 cells", "from_the_text": "as §1, §2, §3", "units": {"Fold (induction of luciferase gene expression)": "fold"}, "values": [{"substance": "N2_2C9 (CTGGGGAGTCCTTCATGC; chemistry not given here)", "Fold (induction of luciferase gene expression)": 1.2}, {"substance": "N2_2G11 (DNA CTGGGGAGTCCTTCATGC; chemistry not given here)", "Fold (induction of luciferase gene expression)": 0.9}, {"substance": "N2_2C3 (CTGGGGAGTCCTTCATGC; chemistry not given here)", "Fold (induction of luciferase gene expression)": 1.1}, {"substance": "N2_2D3 (DNA CTGGGGAGTCCTTCATGC; chemistry not given here)", "Fold (induction of luciferase gene expression)": 0.9}, {"substance": "N2_2F10 (DNA CTGGGGAGTCCTTCATGC; chemistry not given here)", "Fold (induction of luciferase gene expression)": 1.1}, {"substance": "N2_2B4 (CTGGGGAGTCCTTCATGC; chemistry not given here)", "Fold (induction of luciferase gene expression)": 0.8}, {"substance": "N2_2F6 (DNA CTGGGGAGTCCTTCATGC; chemistry not given here)", "Fold (induction of luciferase gene expression)": 1.0}, {"substance": "N2_2C5 (CTGGGGAGTCCTTCATGC; chemistry not given here)", "Fold (induction of luciferase gene expression)": 1.0}, {"substance": "N2_2F3 (DNA CTGGGGAGTCCTTCATGC; chemistry not given here)", "Fold (induction of luciferase gene expression)": 0.9}, {"substance": "N2_2C1 (CTGGGGAGTCCTTCATGC; chemistry not given here)", "Fold (induction of luciferase gene expression)": 1.1}, {"substance": "N2_2B3 (CTGGGGAGTCCTTCATGC; chemistry not given here)", "Fold (induction of luciferase gene expression)": 1.2}, {"substance": "N2_2G8 (DNA CTGGGGAGTCCTTCATGC; chemistry not given here)", "Fold (induction of luciferase gene expression)": 1.1}, {"substance": "N2_2B5 (CTGGGGAGTCCTTCATGC; chemistry not given here)", "Fold (induction of luciferase gene expression)": 1.0}, {"substance": "N2_2B8 (CTGGGGAGTCCTTCATGC; chemistry not given here)", "Fold (induction of luciferase gene expression)": 1.1}, {"substance": "N2_2H8 (CTGGGGAGTCCTTCATGC; chemistry not given here)", "Fold (induction of luciferase gene expression)": 1.4}, {"substance": "N2_2F4 (DNA CTGGGGAGTCCTTCATGC; chemistry not given here)", "Fold (induction of luciferase gene expression)": 1.2}]}, {"tested_on": "luciferase gene expression in HEK 293 cells in response to Comp. 004", "assay": "Screen of riboswitch constructs with 12C6-1 variant aptamers (libraries N1-N5) against Comp. 004, luciferase in HEK 293 cells", "assay_type": "cell-based, human", "conditions": "library N5 variant aptamers (L5, X16-X21 randomized) of 12C6-1 in riboswitch constructs; in response to Comp. 004 treatment; HEK 293 cells", "from_the_text": "as §1, §2, §3", "units": {"Fold (induction of luciferase gene expression)": "fold"}, "values": [{"substance": "N5_1F2 (CTGGGGAGTCCT; chemistry not given here)", "Fold (induction of luciferase gene expression)": 415.1}, {"substance": "N5_13D1 (CTGGGGAGTCCT; chemistry not given here)", "Fold (induction of luciferase gene expression)": 722.9}, {"substance": "N5_14B9 (CTGGGGAGTCCT; chemistry not given here)", "Fold (induction of luciferase gene expression)": 897.5}, {"substance": "N5_1B5 (CTGGGGAGTCCT; chemistry not given here)", "Fold (induction of luciferase gene expression)": 780.8}, {"substance": "N5_7C3 (DNA CTGGGGAGTCCT; chemistry not given here)", "Fold (induction of luciferase gene expression)": 1258.4}, {"substance": "N5_1E1 (CTGGGGAGTCCT; chemistry not given here)", "Fold (induction of luciferase gene expression)": 566.4}, {"substance": "N5_8F3 (DNA CTGGGGAGTCCT; chemistry not given here)", "Fold (induction of luciferase gene expression)": 862.0}, {"substance": "N5_7G6 (DNA CTGGGGAGTCCT; chemistry not given here)", "Fold (induction of luciferase gene expression)": 902.8}, {"substance": "N5_7E2 (DNA CTGGGGAGTCCT; chemistry not given here)", "Fold (induction of luciferase gene expression)": 1234.5}, {"substance": "N5_1C5 (CTGGGGAGTCCT; chemistry not given here)", "Fold (induction of luciferase gene expression)": 966.1}, {"substance": "N5_1H9 (CTGGGGAGTCCT; chemistry not given here)", "Fold (induction of luciferase gene expression)": 714.2}, {"substance": "N5_1A8 (CTGGGGAGTCCT; chemistry not given here)", "Fold (induction of luciferase gene expression)": 589.4}, {"substance": "N5_7G11 (DNA CTGGGGAGTCCT; chemistry not given here)", "Fold (induction of luciferase gene expression)": 1533.8}, {"substance": "N5_6F4 (CTGGGGAGTCCT; chemistry not given here)", "Fold (induction of luciferase gene expression)": 1226.6}, {"substance": "N5_1H10 (CTGGGGAGTCCT; chemistry not given here)", "Fold (induction of luciferase gene expression)": 781.1}, {"substance": "N5_7D7 (DNA CTGGGGAGTCCT; chemistry not given here)", "Fold (induction of luciferase gene expression)": 105.5}, {"substance": "N5_9E12 (DNA CTGGGGAGTCCT; chemistry not given here)", "Fold (induction of luciferase gene expression)": 1458.4}, {"substance": "N5_1C9 (CTGGGGAGTCCT; chemistry not given here)", "Fold (induction of luciferase gene expression)": 915.3}, {"substance": "N5_1A9 (CTGGGGAGTCCT; chemistry not given here)", "Fold (induction of luciferase gene expression)": 804.7}, {"substance": "N5_1H2 (CTGGGGAGTCCT; chemistry not given here)", "Fold (induction of luciferase gene expression)": 386.6}, {"substance": "N5_7C11 (CTGGGGAGTCCT; chemistry not given here)", "Fold (induction of luciferase gene expression)": 459.9}, {"substance": "N5_1E11 (CTGGGGAGTCCT; chemistry not given here)", "Fold (induction of luciferase gene expression)": 1095.6}, {"substance": "N5_9H1 (DNA CTGGGGAGTCCT; chemistry not given here)", "Fold (induction of luciferase gene expression)": 1494.7}, {"substance": "N5_2F12 (CTGGGGAGTCCT; chemistry not given here)", "Fold (induction of luciferase gene expression)": 1100.0}, {"substance": "N5_9G7 (DNA CTGGGGAGTCCT; chemistry not given here)", "Fold (induction of luciferase gene expression)": 937.7}, {"substance": "N5_9G5 (DNA CTGGGGAGTCCT; chemistry not given here)", "Fold (induction of luciferase gene expression)": 725.3}, {"substance": "N5_7E9 (DNA CTGGGGAGTCCT; chemistry not given here)", "Fold (induction of luciferase gene expression)": 955.3}, {"substance": "N5_13D5 (CTGGGGAGTCCT; chemistry not given here)", "Fold (induction of luciferase gene expression)": 749.4}, {"substance": "N5_2E11 (CTGGGGAGTCCT; chemistry not given here)", "Fold (induction of luciferase gene expression)": 1038.1}, {"substance": "N5_1C4 (CTGGGGAGTCCT; chemistry not given here)", "Fold (induction of luciferase gene expression)": 665.0}, {"substance": "N5_7C1 (CTGGGGAGTCCT; chemistry not given here)", "Fold (induction of luciferase gene expression)": 87.5}, {"substance": "N5_3C8 (CTGGGGAGTCCT; chemistry not given here)", "Fold (induction of luciferase gene expression)": 835.1}, {"substance": "N5_7H3 (DNA CTGGGGAGTCCT; chemistry not given here)", "Fold (induction of luciferase gene expression)": 360.5}, {"substance": "N5_7F6 (DNA CTGGGGAGTCCT; chemistry not given here)", "Fold (induction of luciferase gene expression)": 898.5}, {"substance": "N5_1B6 (CTGGGGAGTCCT; chemistry not given here)", "Fold (induction of luciferase gene expression)": 1381.8}, {"substance": "N5_2B5 (CTGGGGAGTCCT; chemistry not given here)", "Fold (induction of luciferase gene expression)": 1107.3}, {"substance": "N5_6A6 (CTGGGGAGTCCT; chemistry not given here)", "Fold (induction of luciferase gene expression)": 1024.4}, {"substance": "N5_1F9 (CTGGGGAGTCCT; chemistry not given here)", "Fold (induction of luciferase gene expression)": 685.1}, {"substance": "N5_1E9 (CTGGGGAGTCCT; chemistry not given here)", "Fold (induction of luciferase gene expression)": 699.7}, {"substance": "N5_1H11 (CTGGGGAGTCCT; chemistry not given here)", "Fold (induction of luciferase gene expression)": 413.6}, {"substance": "N5_1D11 (CTGGGGAGTCCT; chemistry not given here)", "Fold (induction of luciferase gene expression)": 4.8}, {"substance": "N5_1B7 (CTGGGGAGTCCT; chemistry not given here)", "Fold (induction of luciferase gene expression)": 662.1}, {"substance": "N5_7D2 (DNA CTGGGGAGTCCT; chemistry not given here)", "Fold (induction of luciferase gene expression)": 1114.3}]}]}
